Test results from patent US10098900B2, “Pharmaceutical compositions and their use for treatment of cancer and autoimmune diseases” (ZHEJIANG DTRM BIOPHARMA CO. LTD., priority 2015, dated 2018).
Read-outs that look alike come from different tables or passages of the source. Marks after values point to notes of the source that are not given here.

Experiments:
TMD-8 lymphoma xenograft = experiment: Inhibition of tumor growth in vivo, TMD-8 lymphoma xenograft SCID mouse model; details: for Antitumor effect (%): TMD-8, Oral, BID
Experimental: Inhibition Study of Tumor Growth In Vivo:
SCID mice or nude mice (weighing about 18 g at the beginning of the experiment) were randomly divided into groups by the software in order to achieve close average weights between groups and control the bias within the allowable range. The mice were injected BTK cell lines (TMD-8, WSU-DLCL2 and DoHH-2) for tumor formation. Inhibitors were administered orally once or twice a day, a total of 14 days, 21 days or 28 days. Body weights and tumor volume were recorded.
Xenograft Tumor Models Inoculated with TMD-8, or DoHH2, or WSU-DLCL2 Tumor Cell Lines:
TMD-8 is a sensitive human diffuse large B-cell lymphoma cell line, and DoHH2 is a more difficult to treat human follicular lymphoma cell line, while WSU-DLCL2 is a multi-drug resistant (MDR) human non-Hodgkin's lymphoma cell line. Drug combination therapies provide better efficacies in all three tumor models than single targeted agent alone.
The TMD-8, DoHH2, WSU-DLCL2 tumor cells were maintained in vitro as a suspension culture in RPMI-1640 medium supplemented with 10% heat inactivated fetal calf serum at 37° C. in an atmosphere of 5% CO2 in air. The tumor cells were routinely subcultured twice weekly. The cells growing in an exponential growth phase were harvested and counted for tumor inoculation. Each mouse was inoculated subcutaneously at the right flank with the tumor cells (10×10^6) in 0.2 ml of PBS with Matrigel (1:1) for tumor development. The treatments were started after the average tumor size reached approximately 100-200 mm^3. Each group consisted of 6-10 tumor-bearing mice. The testing article (vehicle, compound or combination) was orally administrated to the mice according to the predetermined doses for 14-days or 21-days. Animal body weight and tumor volume were measured every 2- or 3-days throughout the treatment.

TMD-8 cell line = experiment: Inhibition assay of tumor cell activity (cell viability), TMD-8; format: cell-based, human; details: individual compound; for inhibition at 0.01 µM / inhibition at 0.1 µM / inhibition at 1 µM: Homo sapiens, TMD8, 48 h, read-out: Inh % on TMD-8 cell line (AVG); for Inh % on TMD-8 cell line (AVG): 48 h
Experimental: (§1) Inhibition Assay of Tumor Cell Activity:
(§2) Tumor cells (TMD-8, DoHH2 and WSU-DLCL2) were transferred and attached to 96-well plates. After one night, blank buffer and selected concentrations (0.01 nM-100 μM) of the test compound solution were added. After 48 hours incubation, CellTiter-Go was added to lyse the cells. Recording luminescent signal and calculate the percent inhibition of cell viability

[1] = test system: resistant WSU-DLCL2 cell line; experiment: Inhibition assay of tumor cell activity (cell viability), WSU-DLCL2; format: cell-based; details: Homo sapiens, WSUDLCL2, individual compound, read-out: Inh % on resistant WSU-DLCL2 cell line (AVG)
Experimental: as §1, §2

DoHH-2 cell line = experiment: Inhibition assay of tumor cell activity (cell viability), DoHH-2; format: cell-based; details: Homo sapiens, individual compound, read-out: Inh % on DoHH-2 cell line (AVG)
Experimental: as §1, §2

[2] = test system: collagen induced arthritis; experiment: Collagen-induced arthritis (CIA) model in male DBA/1 mice (clinical score, histopathology); format: in vivo, mouse; set-up: Clinical Score (Mean) / Pathological score (Mean ± SEM), Inflammatory cell infiltration / Pathological score (Mean ± SEM), Pannus growth / Pathological score (Mean ± SEM), Cartilage injury / Pathological score (Mean ± SEM), Bone resorption / Pathological score (Mean ± SEM), Total: scale not given here; details: CIA study; for Clinical Score (Mean): Dexamethasone 0.2 mg/kg
Experimental: Collagen-Induced Arthritis (CIA) Model: The combination of Compounds 3 and 12 was evaluated in collagen induced arthritis (CIA) mouse model in Male DBA/1 mice. The animals were divided into 8 groups, including a normal, a vehicle, […] treatment groups: […] On the same day, immunized mice were randomly divided into 7 groups: […] The treatments were given orally for 2 consecutive weeks. Body weight and clinical score were monitored through the study (recorded three times a week started after second immunization). At the end of the study, animals were euthanized and both hind paws were collected for histopathology analysis.

WSU-DLCL2 xenograft = details: gavage to mice, 480 mg/kg/day, Knutson et al., cited from earlier work
[3] = Left hind paw, Dexamethasone 0.2 mg/kg QD
[4] = Right hind paw, Dexamethasone 0.2 mg/kg QD

CO[C@H]1C[C@@H]2CC[C@@H](C)[C@@](O)(O2)C(=O)C(=O)N2CCCC[C@H]2C(=O)O[C@H]([C@H](C)C[C@@H]2CC[C@@H](OCCO)[C@H](OC)C2)CC(=O)[C@H](C)/C=C(\C)[C@@H](O)[C@@H](OC)C(=O)[C@H](C)C[C@H](C)/C=C/C=C/C=C/1C [Compound 14, Everolimus]
tumor disappearance (TMD-8 lymphoma xenograft; TMD-8 mice model, text): tumor disappearance

Nc1cccc2c1C(=O)N(C1CCC(=O)NC1=O)C2=O (centres unmarked) [Compound 15, Pomalidomide]
inhibition at 0.01 µM (TMD-8 cell line; 0.01 uM (10 nM)): 45.1%
inhibition at 0.1 µM (TMD-8 cell line; 0.1 uM (100 nM)): 61.7%
inhibition at 1 µM (TMD-8 cell line; 1 uM (1,000 nM)): 76.8%
Antitumor effect (%) (TMD-8 lymphoma xenograft; FIG. 2, 14 days, 30 mg/kg): 24%
Antitumor effect (%) (TMD-8 lymphoma xenograft; FIG. 3, 21 days, 10 mg/kg): −8%
inhibition at 0.01 µM ([1]; 0.01 uM): -14.5%
inhibition at 0.1 µM ([1]; 0.1 uM): -8.32%
inhibition at 1 µM ([1]; 1 uM): 46.6%
inhibition at 0.01 µM (DoHH-2 cell line; 0.01 uM): -7.95%
inhibition at 0.1 µM (DoHH-2 cell line; 0.1 uM): 6.75%
inhibition at 1 µM (DoHH-2 cell line; 1 uM): 51.3%

Nc1cccc2c1CN(C1CCC(=O)NC1=O)C2=O (centres unmarked) [Compound 16, Lenalidomide]
inhibition at 0.01 µM (TMD-8 cell line; 0.01 uM (10 nM)): 7.43%
inhibition at 0.1 µM (TMD-8 cell line; 0.1 uM (100 nM)): 21%
inhibition at 1 µM (TMD-8 cell line; 1 uM (1,000 nM)): 94.2%
Antitumor effect (%) (TMD-8 lymphoma xenograft; FIG. 4, 21 days, 10 mg/kg): 16%
Antitumor effect (%) (TMD-8 lymphoma xenograft; FIG. 4, 21 days, 30 mg/kg): 42%

CO[C@H]1C[C@@H]2CC[C@@H](C)[C@@](O)(O2)C(=O)C(=O)N2CCCC[C@H]2C(=O)O[C@H]([C@H](C)C[C@@H]2CC[C@@H](O)[C@H](OC)C2)CC(=O)[C@H](C)/C=C(\C)[C@@H](O)[C@@H](OC)C(=O)[C@H](C)C[C@H](C)/C=C/C=C/C=C/1C [Compound 17, Rapamycin]
inhibition at 0.01 µM (TMD-8 cell line; 0.01 uM (10 nM)): 58.7%
inhibition at 0.1 µM (TMD-8 cell line; 0.1 uM (100 nM)): 59.8%
inhibition at 1 µM (TMD-8 cell line; 1 uM (1,000 nM)): 65%

CN(Cc1cnc2nc(N)nc(N)c2n1)c1ccc(C(=O)N[C@@H](CCC(=O)O)C(=O)O)cc1 [Compound 18, Methotrexate]
Inh % on TMD-8 cell line (AVG) (TMD-8 cell line; 0.01 uM (10 nM)): −8.45%
Inh % on TMD-8 cell line (AVG) (TMD-8 cell line; 0.1 uM (100 nM)): 32.04%
Inh % on TMD-8 cell line (AVG) (TMD-8 cell line; 1 uM (1,000 nM)): 39.55%

C[C@@H]1C[C@H]2[C@@H]3CCC4=CC(=O)C=C[C@]4(C)[C@@]3(F)[C@@H](O)C[C@]2(C)[C@@]1(O)C(=O)CO [Dexamethasone]
Pathological score (Mean ± SEM), Total ([2]; Dexamethasone 0.2 mg/kg QD): 0.00 ± 0.00
Pathological score (Mean ± SEM), Bone resorption [2, 3]: 0.00 ± 0.00
Pathological score (Mean ± SEM), Cartilage injury [2, 3]: 0.00 ± 0.00
Pathological score (Mean ± SEM), Inflammatory cell infiltration [2, 3]: 0.00 ± 0.00
Pathological score (Mean ± SEM), Pannus growth [2, 3]: 0.00 ± 0.00
Pathological score (Mean ± SEM), Bone resorption [2, 4]: 0.00 ± 0.00
Pathological score (Mean ± SEM), Cartilage injury [2, 4]: 0.00 ± 0.00
Pathological score (Mean ± SEM), Inflammatory cell infiltration [2, 4]: 0.00 ± 0.00
Pathological score (Mean ± SEM), Pannus growth [2, 4]: 0.00 ± 0.00
Clinical Score (Mean) ([2]; day 21): 0.00
Clinical Score (Mean) ([2]; day 32): 0.60***
Clinical Score (Mean) ([2]; day 39): 0.40***
Clinical Score (Mean) ([2]; day 42): 0.20***

CCN(c1cc(-c2ccc(CN3CCOCC3)cc2)cc(C(=O)NCc2c(C)cc(C)[nH]c2=O)c1C)C1CCOCC1 [EPZ-6438]
effect against the WSU-DLCL tumor (WSU-DLCL2 xenograft): achieved a similar effect
effect against the WSU-DLCL tumor (WSU-DLCL2 xenograft; listed as EZ-6438): inhibited tumor growth
